The data set has as its system Fibroblast. As to the kind of experiment: Incucyte cell viability with human fibroblast. Note: filed as whole numbers so only -1 and 0 and 1 occur. It is filed as toxicity, cell-based. Conditions: 10 µM, compound concentration 10 uM.
Where [1] appears, read: 6 h, replicate number 1, timepoint 6 hours.
Where [2] appears, read: 12 h, replicate number 1, timepoint 12 hours.
[3] abbreviates: 18 h, replicate number 1, timepoint 18 hours.
Where [4] appears, read: 24 h, replicate number 1, timepoint 24 hours.

On to `COc1cc2ncn(-c3cc(OCc4ccccc4C(F)(F)F)c(C(N)=O)s3)c2cc1OC` [GW843682X], for which the “Growth Rate” value reads like this: (0 h, replicate number 1, timepoint 0 hours) 0; under setting [1], 1; under setting [2], 0; under setting [3], 0; under setting [4], 0.
For `CC(C)NC(=O)N1CC[C@H](NC2=Nc3cc(F)ccc3N(CC(F)F)c3ccc(Cl)cc32)C1`, the “Growth Rate” value under setting [1] is on record as 0, the “Growth Rate” value under setting [2] is given as 0, the “Growth Rate” value under setting [3] is on record as 0 and the “Growth Rate” value under setting [4] stood at 0.

The values are drawn from ChEMBL document CHEMBL4689842, “EUbOPEN Chemogenomics Library wave 1” (2021).
